{
  "source": "paper PMC11144398",
  "about": "“Crizotinib inhibits the metabolism of tramadol by non-competitive suppressing the activities of CYP2D1 and CYP3A2” (PeerJ, 2024)",
  "key": {"CYP2D1": {"molecular_target": "T1, CYP2D1 (Rattus norvegicus, UniProt P10633)", "T1 construct": "All liver tissue samples were extracted into liver microsomes by homogenization and centrifugation; from tissue; host or cells: liver microsomes of Sprague-Dawley rats (control or dosed with crizotinib)", "T1 sequence (P10633 1-504)": "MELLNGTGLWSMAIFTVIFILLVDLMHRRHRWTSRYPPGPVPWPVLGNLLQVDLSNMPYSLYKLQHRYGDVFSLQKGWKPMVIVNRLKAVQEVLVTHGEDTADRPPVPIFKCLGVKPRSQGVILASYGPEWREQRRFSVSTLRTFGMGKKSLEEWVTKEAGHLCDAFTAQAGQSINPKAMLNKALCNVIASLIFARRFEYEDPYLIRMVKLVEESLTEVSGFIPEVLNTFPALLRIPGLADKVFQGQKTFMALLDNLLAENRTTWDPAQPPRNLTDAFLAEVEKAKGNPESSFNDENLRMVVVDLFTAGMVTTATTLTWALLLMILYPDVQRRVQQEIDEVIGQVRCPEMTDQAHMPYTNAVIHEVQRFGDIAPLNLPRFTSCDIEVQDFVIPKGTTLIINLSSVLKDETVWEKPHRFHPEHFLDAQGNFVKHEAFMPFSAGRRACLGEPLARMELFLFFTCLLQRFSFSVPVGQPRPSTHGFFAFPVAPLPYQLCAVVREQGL", "assay": "Activity of CYP2D1 in liver microsomes of treated rats (dextromethorphan probe)", "assay_type": "in vitro ADME", "experimental": "(§1) Nine rats were randomly divided into three groups (n = 3): group E received 0.5% CMC-Na for 7 days; group F received 45 mg/kg crizotinib for 6 days; and group G received 45 mg/kg of crizotinib for 7 days. […] The blood, liver, kidney, and small intestine were harvested within 10 min and flash-frozen in liquid nitrogen before being transferred to −80 °C for later use.\n(§2) All liver tissue samples were extracted into liver microsomes by homogenization and centrifugation, following the same operational steps as previously reported ([Simpson, 2010]). A new incubation system was established, which included 2 µL dextromethorphan or midazolam (the probe substrate of CYP2D1 or CYP3A2), 2 uL RLM (0.2 mg/mL) from different groups, 186 µL 1xPBS buffer, and 10 µL NADPH (1 mM). […] UPLC-MS/MS was used to detect the concentration of dextrorphan and 1-hydroxymidazolam to determine whether the activities of CYP2D1 and CYP3A2 in the liver were affected by crizotinib."}, "CYP3A2": {"molecular_target": "T2, CYP3A2 (Rattus norvegicus, UniProt P05183)", "T2 construct": "All liver tissue samples were extracted into liver microsomes by homogenization and centrifugation; from tissue; host or cells: liver microsomes of Sprague-Dawley rats (control or dosed with crizotinib)", "T2 sequence (P05183 1-504)": "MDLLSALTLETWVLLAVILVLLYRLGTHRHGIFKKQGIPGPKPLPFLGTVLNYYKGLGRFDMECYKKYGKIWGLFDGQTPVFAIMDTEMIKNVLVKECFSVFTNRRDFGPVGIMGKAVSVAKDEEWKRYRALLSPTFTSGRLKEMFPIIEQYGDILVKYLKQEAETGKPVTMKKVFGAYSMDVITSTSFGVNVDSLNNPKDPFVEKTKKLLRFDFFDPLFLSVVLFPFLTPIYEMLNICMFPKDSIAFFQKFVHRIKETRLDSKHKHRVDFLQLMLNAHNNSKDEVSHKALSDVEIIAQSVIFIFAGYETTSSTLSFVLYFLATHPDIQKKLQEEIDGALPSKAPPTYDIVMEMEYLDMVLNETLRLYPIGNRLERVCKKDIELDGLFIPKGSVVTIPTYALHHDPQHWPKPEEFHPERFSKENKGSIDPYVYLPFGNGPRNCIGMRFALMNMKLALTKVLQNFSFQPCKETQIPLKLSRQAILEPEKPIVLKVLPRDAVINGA", "assay": "Activity of CYP3A2 in liver microsomes of treated rats (midazolam probe)", "assay_type": "in vitro ADME", "details": "RLM from crizotinib-treated rats (45 mg/kg); midazolam 10 µM", "experimental": "as §1, §2"}},
  "data": [
    {"smiles": "C[C@@H](Oc1cc(-c2cnn(C3CCNCC3)c2)cnc1N)c1c(Cl)ccc(F)c1Cl", "note": "[crizotinib]", "values": [
      {"measurement": "metabolic rate of dextromethorphan (CYP2D1 activity)", "setting": "CYP2D1; RLM from crizotinib-treated rats (45 mg/kg), dextromethorphan 25 µM", "result": "decreased to different extents"},
      {"measurement": "metabolic rate of dextromethorphan (CYP2D1 activity)", "setting": "CYP2D1; crizotinib administered for seven days", "result": "significant decrease"},
      {"measurement": "metabolic rate of midazolam (CYP3A2 activity)", "setting": "CYP3A2", "result": "decreased to different extents"}
    ]}
  ]
}
